Entries after “also recorded” stand apart in the source; their conditions may differ.
Legend:
bronchial secretion = settings: animal experiments; Engelhorn 1966, Merker 1966, Boyd 1966; cited from earlier work
various types of cough = settings: animal experiments; Engelhorn 1966, Merker 1966, Boyd 1966; cited from earlier work
[1] = Acute toxicity in rats treated orally; format: in vivo; settings: oral
[2] = Long-term toxicity in rats: urine analysis; format: in vivo
Method: Urine analysis is carried out on 6 animals per group (3 males and 3 females) before as well as 30 and 60 days after treatment. Control group and the animals receiving 250 mg/kg Bromhexine and 350 mg/kg IFT 1026 respectively are observed.
The amount, aspect, colour, pH value, albumin, glucose, bilirubin levels and ketone bodies are recorded using also Ames reactive stripes.

[3] = test system: blood pressure and heart rate; assay: Action on blood pressure and heart rate in the anesthetized rat; format: in vivo; settings: intraperitoneal
Method: After intraperitoneal administration of increasing doses of IFT 1026, blood pressure, heart rate and the amplitude of heart contractions are unchanged. The effect of IFT 1026 at the dose of 450 mg/kg on blood pressure in the anesthesized rat is exemplified by the graph in FIG. No. 1.
FIG. 1--Arterial pressure recorded in the anaesthetized rat before and after IFT 1026 administration.

[4] = test system: amphetamine-induced stereotypies; assay: Action on the amphetamine-induced stereotypies and toxicity on mice; settings: 500 mg/kg/10 ml p.o., 60 min before dl-amphetamine 16 mg/kg/ml i.p.
Method: Stereotypies and death are caused 60 min. after treatment with IFT 1026 (500 mg/kg/10 ml p.o.) by injecting dl-amphetamine (16 mg/kg/ml i.p.) to groups of 10 male albino Swiss mice per cage.

[5] = test system: Cough elicited by 15% citric acid spray; assay: Antitussive effect in Guinea-pigs and mice (overall); format: in vivo; settings: mice (oral) and Guinea-pigs (i.p.)
Method: (6) Antitussive effect in Guinea-pigs and mice
The effect was tested 1 hour after oral administration and 30 min. after intraperitoneal application of the antitussive agents on mice and Guinea-pigs respectively.

| Structure (SMILES) | stimulation of bronchial secretion (bronchial secretion) | effects on various types of cough (various types of cough) | behaviour / clinical signs ([1]; high doses (up to 3000 mg/kg)) | lethal cases ([1]; increasing doses up to 3000 mg/kg, up to the seventh day after treatment) | urine amount, aspect, colour, pH, albumin, glucose, bilirubin, ketone bodies ([2]; 250 mg/kg Bromhexine, 350 mg/kg IFT 1026, 30 and 60 days) | impairment in the kidney ([2]; 350 mg/kg IFT 1026) | amplitude of heart contractions ([3]; increasing doses) | heart rate ([3]; increasing doses) | blood pressure ([3]; rat, increasing doses (450 mg/kg in FIG. 1)) | amphetamine-induced death [4] | amphetamine-induced stereotypies [4] | antitussive effect compared in terms of the parent compound (Bromhexine) [5] | antitussive effect compared with Bromhexine [5] |
| --- | --- | --- | --- | --- | --- | --- | --- | --- | --- | --- | --- | --- | --- |
| CN(Cc1cc(Br)cc(Br)c1N)C1CCCCC1 [Bromhexine, N-cyclohexyl-N-methyl-2-(2-amino-3,5-dibromo)benzylammonium chloride] | marked stimulation | depressing effects | – | – | – | – | – | – | – | – | – | – | – |
| COc1ccccc1OCC(=O)Nc1c(Br)cc(Br)cc1CN(C)C1CCCCC1 [IFT 1026, N-(2-guaiacol-glycolyl-amino-3,5-dibromobenzyl)N-cyclohexylmethylamine] | – | – | slight depression in behaviour, occasional tremor and stiffness | no lethal cases | no changes occur in said parameters | no impairment in the kidney | unchanged | unchanged | unchanged | not changed | not changed | the same when compared in terms of the parent compound | slightly weaker than Bromhexine; also recorded: approximately the same as that of Bromhexine |

Source: US4191780A, “Bromhexine derivatives and process for making same” (priority 1978, dated 1980)
